# Measured values taken from US6479435B1, “Diaryl ethers and processes for their preparation and herbicidal and desiccant compositions containing them” (ISK Americas Incorporated, priority 1997, dated 2002).
# Legend:
# Format in all cases: in vivo
# [1] = system: Johnsongrass (Sorghum halepense, SORHA); assay: Pre-emerge greenhouse herbicide test, phytotoxicity rating; settings: 14 days after application, rating scale 0-100
# Outline: (§1)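 Seeds sown in sandy loam mix one day before track-sprayer application of compounds in acetone at 125–1000 g ai/ha (187 l/ha), then surface-watered to incorporate and bottom-watered. Visual rating 14 days after application on a 0–100 scale (0 = no damage, 100 = all plants dead).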
# [2] = system: barnyardgrass (Echinochloa crusgalli, ECHCG); assay: as above; settings: 14 days after application, rating scale 0-100
# Outline: as §1
# [3] = system: common ragweed (Ambrosia artemisiifolia L., AMBEL); assay: as above; settings: 14 days after application, rating scale 0-100
# Outline: as §1
# [4] = system: green foxtail (Setaria viridis, SETVI); assay: as above; settings: 14 days after application, rating scale 0-100
# Outline: as §1
# [5] = system: ivyleaf morningglory (Ipomoea hederacea, IPOHE); assay: as above; settings: 14 days after application, rating scale 0-100
# Outline: as §1
# [6] = system: lambsquarters (Chenopodium album, CHEAL); assay: as above; settings: 14 days after application, rating scale 0-100
# Outline: as §1
# [7] = system: large crabgrass (Digitaria sanguinalis, DIGSA); assay: as above; settings: 14 days after application, rating scale 0-100
# Outline: as §1
# [8] = system: redroot pigweed (Amaranthus retroflexus, AMARE); assay: as above; settings: 14 days after application, rating scale 0-100
# Outline: as §1
# [9] = system: sicklepod (Cassia obtusifolia, CASOB); assay: as above; settings: 14 days after application, rating scale 0-100
# Outline: as §1
# [10] = system: velvetleaf (Abutilon theophrasti, ABUTH); assay: as above; settings: 14 days after application, rating scale 0-100
# Outline: as §1
# [11] = system: field corn (Zea mays L., var. Dekalb 535, CORN); assay: Pre-emerge greenhouse test, crop damage rating; settings: 14 days after application, rating scale 0-100
# Outline: as §1
# [12] = system: upland rice (Oryza sp., var.Tebonnet, RICE); assay: Pre-emerge greenhouse test, crop damage rating; settings: 14 days after application, rating scale 0-100
# Outline: as §1
# [13] = system: soybean (Glycine max L., var. Pella 86, SOY); assay: Pre-emerge greenhouse test, crop damage rating; parameters: key to SOY crop damage rating: 0 = no damage, 100 = complete death of all plants; settings: 14 days after application, rating scale 0-100
# Outline: as §1
# [14] = system: common ragweed (Ambrosia artemisiifolia L., AMBEL); assay: Post-emerge greenhouse herbicide test, phytotoxicity rating; settings: 14 days after application, scale 0-100
# Outline: (§2)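 Compounds in acetone with 0.25% v/v non-ionic surfactant were track-sprayed at 187 l/ha over plants at the 2-3 leaf stage, at 63 to 1000 g ai/ha. Pots were bottom-watered. Injury was scored visually 14 days later on a 0-100 scale, where 0 is no damage and 100 is complete plant death.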
# [15] = system: Johnsongrass (Sorghum halepense, SORHA); assay: as above; settings: 14 days after application, scale 0-100
# Outline: as §2
# [16] = system: barnyardgrass (Echinochloa crusgalli, ECHCG); assay: as above; settings: 14 days after application, scale 0-100
# Outline: as §2
# [17] = system: green foxtail (Setaria viridis, SETVI); assay: as above; settings: 14 days after application, scale 0-100
# Outline: as §2
# [18] = system: ivyleaf morningglory (Ipomoea hederacea, IPOHE); assay: as above; settings: 14 days after application, scale 0-100
# Outline: as §2
# [19] = system: lambsquarters (Chenopodium album, CHEAL); assay: as above; settings: 14 days after application, scale 0-100
# Outline: as §2
# [20] = system: large crabgrass (Digitaria sanguinalis, DIGSA); assay: as above; settings: 14 days after application, scale 0-100
# Outline: as §2
# [21] = system: redroot pigweed (Amaranthus retroflexus, AMARE); assay: as above; settings: 14 days after application, scale 0-100
# Outline: as §2
# [22] = system: sicklepod (Cassia obtusifolia, CASOB); assay: as above; settings: 14 days after application, scale 0-100
# Outline: as §2
# [23] = system: velvetleaf (Abutilon theophrasti, ABUTH); assay: as above; settings: 14 days after application, scale 0-100
# Outline: as §2
# [24] = system: field corn (Zea mays L., var. Dekalb 535, CORN); assay: Post-emerge greenhouse test, crop damage rating; settings: 14 days after application, scale 0-100
# Outline: as §2
# [25] = system: upland rice (Oryza sp., var.Tebonnet, RICE); assay: Post-emerge greenhouse test, crop damage rating; settings: 14 days after application, scale 0-100
# Outline: as §2
# [26] = system: soybean (Glycine max L., var. Pella 86, SOY); assay: Post-emerge greenhouse test, crop damage rating; parameters: key to crop damage rating SOY: 0-100 scale: 0 = no damage, 100 = complete death of all plants; settings: 14 days after application, scale 0-100
# Outline: as §2
smiles,measurement,setting,value
N#Cc1cccnc1Oc1cc(-n2c(=O)n3n(c2=S)CCCC3)c(F)cc1Cl [Compound 8-20],SORHA phytotoxicity rating,[1]; Rate 125 g al/ha,40
same,SORHA phytotoxicity rating,[1]; Rate 500 g al/ha,90
same,ECHCG phytotoxicity rating,[2]; Rate 125 g al/ha,60
same,ECHCG phytotoxicity rating,[2]; Rate 500 g al/ha,80
same,AMBEL phytotoxicity rating,[3]; Rate 125 g al/ha,90
same,AMBEL phytotoxicity rating,[3]; Rate 500 g al/ha,100
same,SETVI phytotoxicity rating,[4]; Rate 125 g al/ha,95
same,SETVI phytotoxicity rating,[4]; Rate 500 g al/ha,100
same,IPOHE phytotoxicity rating,[5]; Rate 125 g al/ha,95
same,IPOHE phytotoxicity rating,[5]; Rate 500 g al/ha,100
same,CHEAL phytotoxicity rating,[6]; Rate 125 g al/ha,100
same,CHEAL phytotoxicity rating,[6]; Rate 500 g al/ha,100
same,DIGSA phytotoxicity rating,[7]; Rate 125 g al/ha,40
same,DIGSA phytotoxicity rating,[7]; Rate 500 g al/ha,100
same,AMARE phytotoxicity rating,[8]; Rate 125 g al/ha,100
same,AMARE phytotoxicity rating,[8]; Rate 500 g al/ha,100
same,CASOB phytotoxicity rating,[9]; Rate 125 g al/ha,90
same,CASOB phytotoxicity rating,[9]; Rate 500 g al/ha,100
same,ABUTH phytotoxicity rating,[10]; Rate 125 g al/ha,100
same,ABUTH phytotoxicity rating,[10]; Rate 500 g al/ha,100
same,CORN crop damage rating,[11]; Rate 125 g al/ha,5
same,CORN crop damage rating,[11]; Rate 500 g al/ha,10
same,RICE crop damage rating,[12]; Rate 125 g al/ha,20
same,RICE crop damage rating,[12]; Rate 500 g al/ha,40
same,SOY crop damage rating,[13]; Rate 125 g al/ha,20
same,SOY crop damage rating,[13]; Rate 500 g al/ha,25
same,phytotoxicity rating AMBEL,[14]; rate 63 g ai/ha,90
same,phytotoxicity rating AMBEL,[14]; rate 500 g ai/ha,100
same,phytotoxicity rating SORHA,[15]; rate 63 g ai/ha,90
same,phytotoxicity rating SORHA,[15]; rate 500 g ai/ha,100
same,phytotoxicity rating ECHCG,[16]; rate 63 g ai/ha,20
same,phytotoxicity rating ECHCG,[16]; rate 500 g ai/ha,40
same,phytotoxicity rating SETVI,[17]; rate 63 g ai/ha,70
same,phytotoxicity rating SETVI,[17]; rate 500 g ai/ha,0
same,phytotoxicity rating IPOHE,[18]; rate 63 g ai/ha,100
same,phytotoxicity rating IPOHE,[18]; rate 500 g ai/ha,100
same,phytotoxicity rating CHEAL,[19]; rate 63 g ai/ha,95
same,phytotoxicity rating CHEAL,[19]; rate 500 g ai/ha,100
same,phytotoxicity rating DIGSA,[20]; rate 63 g ai/ha,30
same,phytotoxicity rating DIGSA,[20]; rate 500 g ai/ha,30
same,phytotoxicity rating AMARE,[21]; rate 63 g ai/ha,100
same,phytotoxicity rating AMARE,[21]; rate 500 g ai/ha,100
same,phytotoxicity rating CASOB,[22]; rate 63 g ai/ha,90
same,phytotoxicity rating CASOB,[22]; rate 500 g ai/ha,100
same,phytotoxicity rating ABUTH,[23]; rate 63 g ai/ha,100
same,phytotoxicity rating ABUTH,[23]; rate 500 g ai/ha,100
same,crop damage rating CORN,[24]; rate 63 g ai/ha,15
same,crop damage rating CORN,[24]; rate 500 g ai/ha,20
same,crop damage rating RICE,[25]; rate 63 g ai/ha,15
same,crop damage rating RICE,[25]; rate 500 g ai/ha,60
same,crop damage rating SOY,[26]; rate 63 g ai/ha,90
same,crop damage rating SOY,[26]; rate 500 g ai/ha,100
N#Cc1ccc(Oc2cc(-n3c(=O)n4n(c3=S)CCCC4)c(F)cc2Cl)nc1 [Compound 8-22],SORHA phytotoxicity rating,[1]; Rate 125 g al/ha,0
same,SORHA phytotoxicity rating,[1]; Rate 500 g al/ha,20
same,ECHCG phytotoxicity rating,[2]; Rate 125 g al/ha,0
same,ECHCG phytotoxicity rating,[2]; Rate 500 g al/ha,30
same,AMBEL phytotoxicity rating,[3]; Rate 125 g al/ha,100
same,AMBEL phytotoxicity rating,[3]; Rate 500 g al/ha,100
same,SETVI phytotoxicity rating,[4]; Rate 125 g al/ha,40
same,SETVI phytotoxicity rating,[4]; Rate 500 g al/ha,100
same,IPOHE phytotoxicity rating,[5]; Rate 125 g al/ha,40
same,IPOHE phytotoxicity rating,[5]; Rate 500 g al/ha,10
same,CHEAL phytotoxicity rating,[6]; Rate 125 g al/ha,100
same,CHEAL phytotoxicity rating,[6]; Rate 500 g al/ha,100
same,DIGSA phytotoxicity rating,[7]; Rate 125 g al/ha,20
same,DIGSA phytotoxicity rating,[7]; Rate 500 g al/ha,90
same,AMARE phytotoxicity rating,[8]; Rate 125 g al/ha,100
same,AMARE phytotoxicity rating,[8]; Rate 500 g al/ha,100
same,CASOB phytotoxicity rating,[9]; Rate 125 g al/ha,20
same,CASOB phytotoxicity rating,[9]; Rate 500 g al/ha,90
same,ABUTH phytotoxicity rating,[10]; Rate 125 g al/ha,100
same,ABUTH phytotoxicity rating,[10]; Rate 500 g al/ha,100
same,CORN crop damage rating,[11]; Rate 125 g al/ha,0
same,CORN crop damage rating,[11]; Rate 500 g al/ha,60
same,RICE crop damage rating,[12]; Rate 125 g al/ha,0
same,RICE crop damage rating,[12]; Rate 500 g al/ha,40
same,SOY crop damage rating,[13]; Rate 125 g al/ha,50
same,SOY crop damage rating,[13]; Rate 500 g al/ha,70
same,phytotoxicity rating AMBEL,[14]; rate 63 g ai/ha,80
same,phytotoxicity rating AMBEL,[14]; rate 500 g ai/ha,100
same,phytotoxicity rating SORHA,[15]; rate 63 g ai/ha,0
same,phytotoxicity rating SORHA,[15]; rate 500 g ai/ha,30
same,phytotoxicity rating ECHCG,[16]; rate 63 g ai/ha,10
same,phytotoxicity rating ECHCG,[16]; rate 500 g ai/ha,30
same,phytotoxicity rating SETVI,[17]; rate 63 g ai/ha,20
same,phytotoxicity rating SETVI,[17]; rate 500 g ai/ha,75
same,phytotoxicity rating IPOHE,[18]; rate 63 g ai/ha,80
same,phytotoxicity rating IPOHE,[18]; rate 500 g ai/ha,100
same,phytotoxicity rating CHEAL,[19]; rate 63 g ai/ha,100
same,phytotoxicity rating CHEAL,[19]; rate 500 g ai/ha,100
same,phytotoxicity rating DIGSA,[20]; rate 63 g ai/ha,0
same,phytotoxicity rating DIGSA,[20]; rate 500 g ai/ha,30
same,phytotoxicity rating AMARE,[21]; rate 63 g ai/ha,95
same,phytotoxicity rating AMARE,[21]; rate 500 g ai/ha,100
same,phytotoxicity rating CASOB,[22]; rate 63 g ai/ha,50
same,phytotoxicity rating CASOB,[22]; rate 500 g ai/ha,80
same,phytotoxicity rating ABUTH,[23]; rate 63 g ai/ha,100
same,phytotoxicity rating ABUTH,[23]; rate 500 g ai/ha,100
same,crop damage rating CORN,[24]; rate 63 g ai/ha,53
same,crop damage rating CORN,[24]; rate 500 g ai/ha,15
same,crop damage rating RICE,[25]; rate 63 g ai/ha,5
same,crop damage rating RICE,[25]; rate 500 g ai/ha,10
same,crop damage rating SOY,[26]; rate 63 g ai/ha,65
same,crop damage rating SOY,[26]; rate 500 g ai/ha,95
